In the supplement of paper PMC10307832 one finds relative viability data, which are given here for eight cell lines.

Holding throughout (experiment): relative viability (nuclei count vs DMSO), 5 days (fraction); higher = more cells survive
Compound in assay [1]: CN1CCN(CC1)C2=CC(=C(C=C2)NC3=NC(=C(S3)C(=O)C4=C(C=CC=C4Cl)Cl)N)OC [XMD14-99] + C[C@@H](Oc1cc(-c2cnn(C3CCNCC3)c2)cnc1N)c1c(Cl)ccc(F)c1Cl [Crizotinib] (partner 1 µM)
In short, it runs like this:
(§1)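 Relative viability divides the nuclei count in treated wells by that in vehicle wells. Lung cancer cell lines were seeded in 1536-well plates, dosed by pin tool the next day, and fixed and stained after 5 days in one step with final 0.05% Triton X-100, 1% formaldehyde and 1 ug/ml Hoechst. Dosing was a single drug or a fixed anchor-drug dose plus five library-drug doses (not always all listed) in √10 steps, and values are medians of duplicate plates imaged at 4×.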

Compound in assay [2]: CN1CCN(CC1)C2=CC(=C(C=C2)NC3=NC(=C(S3)C(=O)C4=C(C=CC=C4Cl)Cl)N)OC [XMD14-99] + CC(C)C[C@H](NC(=O)[C@H](Cc1ccccc1)NC(=O)c1cnccn1)B(O)O [Bortezomib] (partner 0.002 µM)
An outline of the steps:
as §1

Compound in assay [3]: N[C@@H]1CCCN(c2c(/C=C3\SC(=O)NC3=O)cccc2-c2ccccc2)C1 [AZD1208] + CC(C)C[C@H](NC(=O)[C@H](Cc1ccccc1)NC(=O)c1cnccn1)B(O)O [Bortezomib] (partner 0.002 µM)
An outline of the steps:
as §1

Compound in assay [4]: N[C@@H]1CCCN(c2c(/C=C3\SC(=O)NC3=O)cccc2-c2ccccc2)C1 [AZD1208] + NC(=O)Nc1cc(-c2cccc(F)c2)sc1C(=O)N[C@H]1CCCNC1 [AZD7762] (partner 0.2 µM)
In short, it runs like this: as §1

NCI-H2347: the relative viability in assay [1] (first compound 0.08 µM) turned out to be 0.803; in assay [1] (first compound 0.8 µM) it was 0.531; in assay [1] (first compound 2.53 µM) it was 0.737; in assay [1] (first compound 8 µM), 0.501; in assay [2] (first compound 0.08 µM), 1.22; in assay [2] (first compound 0.8 µM), 0.691. Also, the relative viability in assay [2] (first compound 2.53 µM) turned out to be 0.981; in assay [2] (first compound 8 µM) it was 0.553; in assay [3] (first compound 0.08 µM) it was 0.933; in assay [3] (first compound 0.253 µM), 0.734; in assay [3] (first compound 0.8 µM), 0.822; in assay [3] (first compound 2.53 µM) it was 0.791. The relative viability is 1.08 in assay [3] (first compound 8 µM); 0.835 in assay [4] (first compound 0.08 µM); 0.747 in assay [4] (first compound 0.253 µM); 0.72 in assay [4] (first compound 0.8 µM); 0.764 in assay [4] (first compound 2.53 µM); 0.781 in assay [4] (first compound 8 µM).
In the case of LCLC-97TM1, the relative viability in assay [1] (first compound 0.08 µM) was determined as 0.397; in assay [1] (first compound 0.8 µM) it was 0.364; in assay [1] (first compound 2.53 µM), 0.303; in assay [1] (first compound 8 µM) it was 0.222; in assay [2] (first compound 0.08 µM) it was 0.801; in assay [2] (first compound 0.8 µM) it was 0.629. In addition, the relative viability came out at 0.625 in assay [2] (first compound 2.53 µM); 0.33 in assay [2] (first compound 8 µM); 0.671 in assay [3] (first compound 0.08 µM); 0.737 in assay [3] (first compound 0.253 µM); 0.51 in assay [3] (first compound 0.8 µM); 0.762 in assay [3] (first compound 2.53 µM). The relative viability was found to be 0.475 in assay [3] (first compound 8 µM); 0.283 in assay [4] (first compound 0.08 µM); 0.591 in assay [4] (first compound 0.253 µM); 0.334 in assay [4] (first compound 0.8 µM); 0.386 in assay [4] (first compound 2.53 µM); 0.306 in assay [4] (first compound 8 µM).
With EPLC-272H, the relative viability in assay [1] (first compound 0.08 µM) is 0.923; in assay [1] (first compound 0.8 µM), 0.813; in assay [1] (first compound 2.53 µM), 1.04; in assay [1] (first compound 8 µM), 0.927; in assay [2] (first compound 0.08 µM), 0.886; in assay [2] (first compound 0.8 µM), 1.01. In addition, the relative viability is 0.904 in assay [2] (first compound 2.53 µM); 0.912 in assay [2] (first compound 8 µM); 0.878 in assay [3] (first compound 0.08 µM); 0.806 in assay [3] (first compound 0.253 µM); 0.924 in assay [3] (first compound 0.8 µM); 0.927 in assay [3] (first compound 2.53 µM). Also, the relative viability stood at 0.728 in assay [3] (first compound 8 µM); 0.276 in assay [4] (first compound 0.08 µM); 0.339 in assay [4] (first compound 0.253 µM); 0.205 in assay [4] (first compound 0.8 µM); 0.189 in assay [4] (first compound 2.53 µM); 0.271 in assay [4] (first compound 8 µM).
NCI-H1915: the relative viability in assay [1] (first compound 0.08 µM) worked out at 1.02; in assay [1] (first compound 0.8 µM), 0.877; in assay [1] (first compound 2.53 µM), 0.812; in assay [1] (first compound 8 µM), 0.805; in assay [2] (first compound 0.08 µM) it was 1.03; in assay [2] (first compound 0.8 µM), 0.97. Also, the relative viability in assay [2] (first compound 2.53 µM) was determined as 0.872; in assay [2] (first compound 8 µM) it was 0.904; in assay [3] (first compound 0.08 µM) it was 0.976; in assay [3] (first compound 0.253 µM), 1.07; in assay [3] (first compound 0.8 µM), 0.956; in assay [3] (first compound 2.53 µM), 0.94. Further, the relative viability in assay [3] (first compound 8 µM) came out at 1.06; in assay [4] (first compound 0.08 µM) it was 0.642; in assay [4] (first compound 0.253 µM), 0.76; in assay [4] (first compound 0.8 µM), 0.766; in assay [4] (first compound 2.53 µM) it was 0.778; in assay [4] (first compound 8 µM), 0.673.
For the cell line NCI-H3122, the relative viability turned out to be 0.267 in assay [1] (first compound 0.08 µM); 0.229 in assay [1] (first compound 0.8 µM); 0.262 in assay [1] (first compound 2.53 µM); 0.251 in assay [1] (first compound 8 µM); 0.965 in assay [2] (first compound 0.08 µM); 0.948 in assay [2] (first compound 0.8 µM). Further, the relative viability in assay [2] (first compound 2.53 µM) stood at 0.913; in assay [2] (first compound 8 µM), 0.692; in assay [3] (first compound 0.08 µM) it was 1.02; in assay [3] (first compound 0.253 µM) it was 1.04; in assay [3] (first compound 0.8 µM), 1.04; in assay [3] (first compound 2.53 µM) it was 1.06. The relative viability in assay [3] (first compound 8 µM) was determined as 1.06; in assay [4] (first compound 0.08 µM), 1.07; in assay [4] (first compound 0.253 µM) it was 1.04; in assay [4] (first compound 0.8 µM), 0.952; in assay [4] (first compound 2.53 µM) it was 1.08; in assay [4] (first compound 8 µM), 0.894.
Turning to NCI-H441, the relative viability amounted to 0.596 in assay [1] (first compound 0.08 µM); 0.797 in assay [1] (first compound 0.8 µM); 0.661 in assay [1] (first compound 2.53 µM); 0.494 in assay [1] (first compound 8 µM); 0.562 in assay [2] (first compound 0.08 µM); 0.653 in assay [2] (first compound 0.8 µM). Moreover, the relative viability in assay [2] (first compound 2.53 µM) worked out at 0.473; in assay [2] (first compound 8 µM), 0.587; in assay [3] (first compound 0.08 µM), 0.322; in assay [3] (first compound 0.253 µM) it was 0.593; in assay [3] (first compound 0.8 µM), 0.419; in assay [3] (first compound 2.53 µM), 0.455. For the same cell line, the relative viability in assay [3] (first compound 8 µM) worked out at 0.419; in assay [4] (first compound 0.08 µM) it was 1.12; in assay [4] (first compound 0.253 µM) it was 1.16; in assay [4] (first compound 0.8 µM), 0.936; in assay [4] (first compound 2.53 µM), 1.21; in assay [4] (first compound 8 µM), 1.16.
PC-14: the relative viability was determined as 0.824 in assay [1] (first compound 0.08 µM); 0.796 in assay [1] (first compound 0.8 µM); 0.866 in assay [1] (first compound 2.53 µM); 0.714 in assay [1] (first compound 8 µM); 0.831 in assay [2] (first compound 0.08 µM); 0.713 in assay [2] (first compound 0.8 µM). Moreover, the relative viability in assay [2] (first compound 2.53 µM) amounted to 0.735; in assay [2] (first compound 8 µM), 0.698; in assay [3] (first compound 0.08 µM), 0.963; in assay [3] (first compound 0.253 µM), 0.954; in assay [3] (first compound 0.8 µM), 0.848; in assay [3] (first compound 2.53 µM), 1.01. The relative viability was 0.907 in assay [3] (first compound 8 µM); 0.404 in assay [4] (first compound 0.08 µM); 0.429 in assay [4] (first compound 0.253 µM); 0.366 in assay [4] (first compound 0.8 µM); 0.324 in assay [4] (first compound 2.53 µM); 0.414 in assay [4] (first compound 8 µM).
In the case of CAL-12T, the relative viability came out at 0.926 in assay [1] (first compound 0.08 µM); 0.609 in assay [1] (first compound 0.8 µM); 0.724 in assay [1] (first compound 2.53 µM); 0.466 in assay [1] (first compound 8 µM); 1.07 in assay [2] (first compound 0.08 µM); 0.954 in assay [2] (first compound 0.8 µM). Moreover, the relative viability in assay [2] (first compound 2.53 µM) stood at 0.899; in assay [2] (first compound 8 µM), 0.634; in assay [3] (first compound 0.08 µM), 1.32; in assay [3] (first compound 0.253 µM), 1.03; in assay [3] (first compound 0.8 µM), 0.887; in assay [3] (first compound 2.53 µM) it was 1.03. In addition, the relative viability in assay [3] (first compound 8 µM) was 1.18; in assay [4] (first compound 0.08 µM), 0.621; in assay [4] (first compound 0.253 µM), 0.624; in assay [4] (first compound 0.8 µM), 0.621; in assay [4] (first compound 2.53 µM), 0.596; in assay [4] (first compound 8 µM) it was 0.905.
